Values quoted from earlier work as cited in US20220354783A1, “INJECTABLE PROLONGED-ACTION COMPOSITIONS FOR USE IN THE TREATMENT OF NAIL DISEASE AND/OR FOR PROMOTING NAIL GROWTH” (EDIX-O SARL, priority 2018, published 2022).

System: nail diseases
Conditions: oral forms, 250 mg per day for 6 to 12 weeks

Compound: CN(C/C=C/C#CC(C)(C)C)Cc1cccc2ccccc12 [terbinafine]
- total healing in clinical studies: 38%
